What all share (format): cell-based
The test system of one assay is IL-1β. Nature of the assay: Gene expression analysis (qPCR) of IL-1β. To be noted: Fig. 5C; 72 hours, BIRB796 2.5 µM with or without oleuropein; 55 Grays; normalized against HPRT1. The source says:
(§1) Skin tissue biopsies from female patients of A Coruña University Hospital Complex - A Coruña Integrated Management Services (Complejo Hospitalario Universitario de A Coruña - Xerencia Xestión Integrada A Coruña (CHUAC-XXIAC)) were obtained from operations for the surgical removal of a benign pathology (fibroadenoma, samples consisting of untreated healthy skin) and from oncology interventions (samples consisting of skin subjected to radiotherapy and chemotherapy). Signed informed consent was received from each of the patients (2015/029, C.0003333, 2016/077). To isolate primary fibroblast from these samples, hypodermal fat was removed with the aid of a scalpel, and the epidermis was segmented into fragments of about 1x1 cm (explants). Lines were made with a scalpel on a 100 cm^2 adherent Petri dish creating a grid, and each of the explants was placed in the resulting intersections with the epidermis facing up and the dermis in contact with the dish. […] The working concentrations of said compounds were determined by means of literature review and cell viability assays (MTT). […]
(§2) For RNA extraction from the different cell types, TRI Reagent (MRC) was used following the manufacturer's instructions. […] The amount and quality of the obtained RNA was quantified in Nanodrop ND-1000. […]
(In general: Real-time PCR tracks product formation cycle by cycle.)

Assay [1] concerns p21. Nature of the assay: Gene expression analysis (qPCR) of p21. The conditions noted are these: Fig. 8; 72 hours; oleuropein 10 µM, BIRB796 2.5 µM; 55 Grays; normalized against HPRT1.
Description: as §1, §2

In assay [2] the test system is p21. Description: Western blot of p21 in radiated fibroblasts. The conditions noted are these: Fig. 7; post-radiation treatment for 72 hours; oleuropein 10 µM, BIRB796 2.5 µM; 55 Grays; relative to tubulin.
Description: as §1
A general note: Immunoblotting shows a protein as a band on a membrane.

The next assay relates to IL-6. Nature of the assay: Gene expression analysis (qPCR) of IL-6. To be noted: Fig. 5C; 72 hours, BIRB796 2.5 µM with or without oleuropein; 55 Grays; normalized against HPRT1.
Description: as §1, §2

The subject of another assay is MMP-3. Nature of the assay: Gene expression analysis (qPCR) of MMP-3. To be noted: Fig. 5B; 72 hours, BIRB796 2.5 µM; 55 Grays; normalized against HPRT1, compared to non-radiated healthy fibroblast control.
Description: as §1, §2

For a further assay, the system named is p53. Description: Western blot of p53 in radiated fibroblasts. The conditions noted are these: Fig. 7; post-radiation treatment for 72 hours; oleuropein 10 µM, BIRB796 2.5 µM; 55 Grays; relative to tubulin.
Description: as §1

As to `Cc1ccc(-n2nc(C(C)(C)C)cc2NC(=O)Nc2ccc(OCCN3CCOCC3)c3ccccc23)cc1` [BIRB796, doramapimod], the “IL-1β mRNA levels” value in the assay on IL-1β was “decreases synthesis of the inflammatory component”. The “p21 mRNA level” value with p21 [1] is “reduces the gene expression of senescence factor p21”. Also, the “protein levels of p21” value in the assay on p21 [2] is listed as “effectively reduced protein levels of both factors”. Further, the “IL-6 mRNA levels” value in the assay with IL-6 is given as “decreases synthesis of the inflammatory component”. In addition, the “MMP-3 mRNA levels” value with MMP-3 was “protects against the synthesis of SASP components such as MMP-3”. For the same compound, the “protein levels of p53” value in the assay with p53 is recorded as “effectively reduced protein levels of both factors”.

(Values after patent publication EP3960748A1, “COMPOSITION FOR THE TREATMENT OF THE SIDE EFFECTS OF RADIOTHERAPY AND/OR CHEMOTHERAPY” (Fundación Profesor Novoa Santos, priority 2019, dated 2020).)
